Test results taken from patent US5496805A, “Inhibitors of neutral endopeptidase” (priority 1990, dated 1996).
Where a name gives a salt, the structure may show the parent alone.

Molecular target: T1, neutral endopeptidase (Rattus norvegicus, UniProt P07861)
T1 sequence (P07861 1-750): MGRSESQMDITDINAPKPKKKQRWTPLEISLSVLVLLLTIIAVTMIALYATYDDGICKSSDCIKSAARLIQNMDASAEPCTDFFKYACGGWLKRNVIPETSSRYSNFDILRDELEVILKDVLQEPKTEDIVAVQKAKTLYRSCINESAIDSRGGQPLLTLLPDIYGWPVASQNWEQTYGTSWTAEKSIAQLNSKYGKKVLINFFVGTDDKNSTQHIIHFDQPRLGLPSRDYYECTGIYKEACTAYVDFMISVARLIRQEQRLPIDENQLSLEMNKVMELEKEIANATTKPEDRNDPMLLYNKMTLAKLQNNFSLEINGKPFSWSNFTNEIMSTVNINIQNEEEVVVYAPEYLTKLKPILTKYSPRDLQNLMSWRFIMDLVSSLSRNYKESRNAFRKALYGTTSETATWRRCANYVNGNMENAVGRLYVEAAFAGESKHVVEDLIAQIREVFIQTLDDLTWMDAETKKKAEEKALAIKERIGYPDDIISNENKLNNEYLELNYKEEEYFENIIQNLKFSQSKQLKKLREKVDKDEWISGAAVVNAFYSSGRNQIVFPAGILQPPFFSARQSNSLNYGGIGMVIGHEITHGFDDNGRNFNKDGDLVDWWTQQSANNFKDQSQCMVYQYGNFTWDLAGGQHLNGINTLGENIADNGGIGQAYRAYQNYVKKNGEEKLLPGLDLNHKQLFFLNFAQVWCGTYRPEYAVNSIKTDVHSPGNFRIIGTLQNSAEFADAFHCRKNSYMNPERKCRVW
Assay: biochemical
Details: enzyme purified from rat kidney; Dns-Gly-Phe-Arg 0.5 mM; pH 7.5; 37°, 30 minutes; inhibitor preincubated 10 minutes
Method: The in vitro neutral endopeptidase activity is determined using a fluorometric assay procedure. The assay is based upon the cleavage of the fluorescent dansylated tripeptide Dns-Gly-Phe-Arg to form Dns-Gly. The latter is extracted from the acidified mixture by ethyl acetate and is strongly fluorescent.
The incubation mixture employed for the assay contains the substance Dns-Gly-Phe-Arg (0.5 mM), tris(hydroxymethyl)aminomethane -HCl buffer (pH 7.5, 50 mM), an enzyme preparation in 0.05% Triton X-100, and water or inhibitor diluted to a final volume of 0.25 ml. The enzyme preparation is purified from rat kidney according to the procedure described by Almenoff et al. in Biochemistry Vol. 22, p. 590-599 (1983). The inhibitor is preincubated for 10 minutes with the enzyme preparation and buffer before the reaction is initiated by the addition of the substrate. Incubation is carried out at 37° for 30 minutes and the reaction is stopped by the addition of 0.25 ml. 1N HCl and extraction of the Dns-Gly product into 1.5 ml. of ethyl acetate. Relative fluorescent intensity (RFI) of the ethyl acetate extract is measured using a Ferrand Spectofluorometer at excitation and emission wavelengths of 342 and 508 nm., respectively, corrected for the RFI of a zero-time control, and compared with assays lacking inhibitor.
Runs are made at different concentrations of test compound and by use of a mathematical model the IC50 is determined. The IC50 is the concentration of test compound that inhibits activity of the enzyme by 50%.

SMILES | IC50 [nM]
CC(CS)C(=O)N[C@@H](CCCNC(=N)N)C(=O)O (mixture of isomers) [Example 3, N-(DL-3-Mercapto-2-methyl-1-oxopropyl)-L-arginine] | 720
N=C(N)NCCC[C@H](NC(=O)C(CS)Cc1ccccc1)C(=O)O (mixture of isomers) [Example 4, N-[DL-2-(Mercaptomethyl)-1-oxo-3,-phenylpropyl]-L-arginine] | 290
CC(CS)C(=O)N[C@@H](Cc1ccc(O)c(O)c1)C(=O)O (mixture of isomers) [Example 7, 3-Hydroxy-N-(DL-3-mercapto-2-methyl-1-oxopropyl)-L-tyrosine] | 54
CC(C)C[C@H](NC(=O)C(C)CS)C(=O)O (mixture of isomers) [Example 18, (±)-N-(3-Mercapto-2-methyl-1-oxopropyl)-L-leucine, 1,1-dimethylethanamine salt (1:1)] | 69
CC(CS)C(=O)N[C@@H](CCC(=O)O)C(=O)O (mixture of isomers) [Example 19, (±)-N-(3-Mercapto-2-methyl-1-oxopropyl)-L-glutamic acid, 1,1-dimethylethanamine salt (1:2)] | 110
CC(CS)C(=O)N[C@@H](CO)C(=O)O (mixture of isomers) [Example 21, (±)-N-(3-Mercapto-2-methyl-1-oxopropyl)-L-serine, N-cyclohexylcyclohexamine salt(1:1)] | 280
CSCC[C@H](NC(=O)C(C)CS)C(=O)O (mixture of isomers) [Example 23, (±)-N-(3-Mercapto-2-methyl-1-oxopropyl)-L-methionine, 1,1-dimethylethanamine salt (1:1)] | 49
O=C(N[C@@H](Cc1ccc(O)c(O)c1)C(=O)O)C(CS)Cc1ccccc1 (mixture of isomers) [Example 24, (±)-3-Hydroxy-N-[2-(mercaptomethyl)-1-oxo-3-phenylpropyl]-L-tyrosine, 1,1-dimethylethanamine salt (1:1)] | 47
CC(CS)C(=O)N[C@@H](C)C(=O)O (mixture of isomers) [Example 25, (±)-N-(3-Mercapto-2-methyl-1-oxopropyl)-L-alanine, N-cyclohexylcyclohexanamine salt (1:1)] | 120
O=C(NCCCC[C@H](NC(=O)C(CS)Cc1ccccc1)C(=O)O)OCc1ccccc1 (mixture of isomers) [Example 26, (±)-N^2-[2-(Mercaptomethyl)-1-oxo-3-phenylpropyl]-N^6-[(phenylmethoxy)carbonyl]-L-lysine, N-cyclohexylcyclohexanamine salt (1:1)] | 32
CC(C)CC(CS)C(=O)NCC(=O)N[C@@H](CCCN=C(N)N)C(=O)O (mixture of isomers) [Example 55, (±)-N-[N,[2-(Mercaptomethyl)-4-methyl-1-oxopentyl]-glycyl]-L-arginine] | 530
CC(C)CC(CS)C(=O)NCC(=O)N[C@@H](CCC(N)=O)C(=O)O (mixture of isomers) [Example 59, (±)-N^2-[N-[2-(Mercaptomethyl)-4-methyl-1-oxopentyl]-glycyl]-L-glutamine, ammonium salt (1:1)] | 330
CC(C)C[C@H](NC(=O)[C@H](Cc1ccccc1)NC(=O)[C@@H]1CCCC[C@H]1CS)C(=O)O (mixture of isomers) [Example 67, (trans)-N-[N-[[2-(Mercaptomethyl)cyclohexyl]carbonyl]-L-phenylalanyl]-L-leucine] | 970
CC(C)C[C@@H](NC(=O)[C@@H](Cc1ccccc1)NC(=O)[C@@H]1CCCC[C@H]1C(=O)O)C(=O)O (mixture of isomers) [Example 81, (trans)(R,R)-N-[N-[(2-Carboxycyclohexyl)carbonyl]-L-phenylalanyl]-L-leucine] | 1200
CC(C)CC(CS)C(=O)NCC(=O)O (racemic) [Example 8, (±)-N-[2-(Mercaptomethyl)-4-methyl-1-oxopentyl]-glycine] | 280
CCCC(C)C(CS)C(=O)NCC(=O)O (racemic) [Example 10, (±)-N-[2-(Mercaptomethyl)-3-methyl-1-oxohexyl]-glycine, N-cyclohexylcyclohexanamine salt (1:1)] | 510
CC(C)CC(CS)C(=O)N[C@@H](CCCNC(=N)N)C(=O)O (mixture of isomers) [Example 11, (±)-N^2-[2-(Mercaptomethyl)-4-methyl-1-oxopentyl]-L-arginine] | 170
CC(CS)C(=O)NCC(=O)O (racemic) [Example 16, (±)-N-(3-Mercapto-2-methyl-1-oxopropyl)glycine] | 370
O=C(O)CCNC(=O)C(CS)Cc1ccccc1 (racemic) [Example 45, (±)-3-[[2-(Mercaptomethyl)-1-oxo-3-phenylpropyl]amino]propanoic acid] | 8.9
O=C(O)CCCCNC(=O)C(CS)Cc1ccccc1 (racemic) [Example 49, (±)-5-[[2-(Mercaptomethyl)-1-oxo-3-phenylpropyl]amino]pentanoic acid] | 22
O=C(O)CCCCCNC(=O)C(CS)Cc1ccccc1 (racemic) [Example 50, (±)-6-[[2-(Mercaptomethyl)-1-oxo-3-phenylpropyl]amino]hexanoic acid] | 59

Further lines, results first:

IC50 [nM] | SMILES
20 | CC(CS)C(=O)N[C@@H](Cc1c[nH]c2ccccc12)C(=O)O (mixture of isomers) [Example 5, N-(DL-3-Mercapto-2-methyl-1-oxopropyl)-L-tryptophan]
13 | CC(CS)C(=O)N[C@@H](Cc1ccc(O)cc1)C(=O)O (mixture of isomers) [Example 6, N-(DL-3-Mercapto-2,methyl1-oxopropyl)-L-tyrosine]
14 | CC(CS)C(=O)N[C@@H](Cc1ccccc1)C(=O)O (mixture of isomers) [Example 17, (±)-N-(3-Mercapto-2-methyl-1-oxopropyl)-L-phenylalanine, 1,1-dimethylethanamine salt (1:1)]
7.8 | O=C(N[C@@H](Cc1c[nH]c2ccccc12)C(=O)O)C(CS)Cc1ccccc1 (mixture of isomers) [Example 28, (±)-N-[2-(Mercaptomethyl)-1-oxo-3-phenylpropyl]-L -tryptophan, 1,1-dimethylethanamine salt (1:1)]
21 | CC(CS)C(=O)N[C@H](C(=O)O)C(C)C (mixture of isomers) [Example 20, (±)-N-(3-Mercapto-2-methyl-1-oxopropyl)-L-valine]
6.7 | CSCC[C@H](NC(=O)C(CS)Cc1ccccc1)C(=O)O (mixture of isomers) [Example 22, (±)-N-[2-(Mercaptomethyl)-1-oxo-3-phenylpropyl]-L -methionine]
17 | O=C(N[C@@H](Cc1ccc(O)cc1)C(=O)O)C(CS)Cc1ccccc1 (mixture of isomers) [Example 29, (±)-N-[2-(Mercaptomethyl)-1-oxo-3-phenylpropyl]-L -tyrosine]
9 | CC(C)CC(CS)C(=O)N[C@@H](Cc1ccccc1)C(=O)O (mixture of isomers) [Example 33, (±)-N-[2-(Mercaptomethyl)-4-methyl-1-oxopentyl]-L-phenylalanine]
12 | CC(C)CC(CS)C(=O)N[C@@H](CC(C)C)C(=O)O (mixture of isomers) [Example 34, (±)-N-[2-(Mercaptomethyl)-4-methyl-1-oxopentyl]-L-leucine]
6 | O=C(O)CCCNC(=O)C(CS)Cc1ccccc1 (racemic) [Example 46, (±)-4-[[2-(Mercaptomethyl)-1-oxo-3-phenylpropyl]amino]butanoic acid]
